# Data taken from PubChem BioAssay (NCI).
# Where “and” joins values, the source holds several entries; their conditions need not be identical. Equal values may be shown once.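 Step 1: Grow cells in 96-well plates. Step 2: Expose to compound for 48 hours at 5 concentrations. Step 3: Interpolate endpoints linearly; if unreached, use highest concentration. Here, GI50 denotes the concentration required for 50% inhibition of growth. TGI marks complete inhibition of growth.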
# Legend:
# Test in all cases: NCI-60 cell line screen, 48 h
# K-562 leukemia = system: K-562 leukemia
# SW-620 colon = system: SW-620 colon
# UO-31 renal = system: UO-31 renal
# HS 578T breast = system: HS 578T breast
# T-47D breast = system: T-47D breast
# ACHN renal = system: ACHN renal
# COLO 205 colon = system: COLO 205 colon
# CAKI-1 renal = system: CAKI-1 renal
# SF-268 CNS = system: SF-268 CNS
# MOLT-4 leukemia = system: MOLT-4 leukemia
Structure (SMILES),GI50 (K-562 leukemia),TGI (K-562 leukemia),GI50 (SW-620 colon),TGI (SW-620 colon),GI50 (UO-31 renal),TGI (UO-31 renal),GI50 (HS 578T breast),TGI (HS 578T breast),GI50 (T-47D breast),TGI (T-47D breast),GI50 (ACHN renal),TGI (ACHN renal),GI50 (COLO 205 colon),TGI (COLO 205 colon),GI50 (CAKI-1 renal),TGI (CAKI-1 renal),GI50 (SF-268 CNS),TGI (SF-268 CNS),GI50 (MOLT-4 leukemia),TGI (MOLT-4 leukemia)
C[N+](C)(CCCCCC[N+](C)(C)CCCN1C(=O)c2cc3ccccc3cc2C1=O)CCCN1C(=O)c2cc3ccccc3cc2C1=O,> 37.5 µM,> 37.5 µM,> 37.5 µM,> 37.5 µM,> 37.5 µM,> 37.5 µM,> 37.5 µM,> 37.5 µM,> 37.5 µM,> 37.5 µM,> 37.5 µM,> 37.5 µM,> 37.5 µM,> 37.5 µM,> 37.5 µM,> 37.5 µM,> 37.5 µM,> 37.5 µM,> 37.5 µM,> 37.5 µM
O=C1C(=O)c2ccccc2C(O)=C1CCCc1ccc(C2CCCC2)cc1,3.31 µM,10.4 µM,4.87 µM,17.1 µM,3.85 µM,15.5 µM,20.6 µM,85.1 µM,7.21 µM,98 µM,6.08 µM,39.6 µM,6.82 µM,54.3 µM,3.15 µM,11.8 µM,5.1 µM,51.5 µM,3.72 µM,12.3 µM
c1cc(CSSCc2ccncc2)ccn1,,> 100 µM,,> 100 µM,,> 100 µM,,76 µM,,> 100 µM,,> 100 µM,,49.2 µM,,> 100 µM,,> 94.3 µM,,23.7 µM
COC(C(=O)C(O)C(C)O)C1Cc2cc3cc(OC4CC(OC5CC(O)C(O)C(C)O5)C(O)C(C)O4)c(C)c(O)c3c(O)c2C(=O)C1OC1CC(OC2CC(O)C(OC3CC(C)(O)C(O)C(C)O3)C(C)O2)C(O)C(C)O1 (centres undefined),0.0112 µg/mL and 0.00232 µg/mL,,0.0121 µg/mL and 0.00236 µg/mL,,0.0725 µg/mL and 0.00356 µg/mL,,0.0164 µg/mL,0.134 µg/mL,0.0175 µg/mL,15.8 µg/mL,0.0162 µg/mL and 0.0326 µg/mL,112 µg/mL and > 150 µg/mL,0.0112 µg/mL and 0.000702 µg/mL,,0.0112 µg/mL and 0.000362 µg/mL,0.0484 µg/mL and 0.0414 µg/mL,0.0167 µg/mL and 0.00113 µg/mL,,0.0112 µg/mL and 0.00269 µg/mL,
O=C1C=CC(=Nc2ccccc2)c2ccccc21,,42.6 µM,,> 100 µM,,23.3 µM,,88.6 µM,,47.9 µM,,27.4 µM,,20.3 µM,,38.2 µM,,24.8 µM,,36.2 µM
COc1ccc2c(Cc3c4ccccc4cc4ccccc34)cncc2c1O,,12.8 µM,,> 100 µM,,34.9 µM,,> 100 µM,,> 71.7 µM,,27.3 µM,,34.4 µM,,36.3 µM,,> 100 µM,,8.82 µM
O=c1c2c(c3ccccc3n1-c1ccccc1)NC(=S)NC2c1ccc(Cl)cc1 (centres undefined),4.04 µM,> 100 µM,6.97 µM,49.9 µM,3.22 µM,42.7 µM,1.85 µM,> 100 µM,20 µM,> 100 µM,3.92 µM,> 100 µM,8.09 µM,29.1 µM,3.16 µM,27.1 µM,3.28 µM,> 100 µM,4.17 µM,> 100 µM
c1ccc(CN2CCC3(CC2)SSC2(CCN(Cc4ccccc4)CC2)SS3)cc1,,> 100 µM,,> 100 µM,,> 100 µM,,> 100 µM,,> 100 µM,,> 100 µM,,> 100 µM,,> 100 µM,,> 100 µM,,> 100 µM
CCCCCCCCCCC/C=C\C[C@H](O)C/C=C1/C(=O)C=C[C@@H]1C/C=C\CCCC(=O)OC,0.898 µM,3.2 µM,1.09 µM,4.05 µM,1.1 µM,4.67 µM,0.986 µM,6.1 µM,0.796 µM,3.44 µM,1.23 µM,4.9 µM,1.21 µM,3.83 µM,1.07 µM,5.62 µM,0.939 µM,3.97 µM,0.838 µM,2.71 µM
O=[N+]([O-])c1ccc(Sc2nc(Cl)nc(NC3CCCC3)n2)cc1,5.89 µM,> 10 µM,4.78 µM,> 10 µM,3.08 µM,> 10 µM,> 10 µM,> 10 µM,> 10 µM,> 10 µM,> 10 µM,> 10 µM,> 10 µM,> 10 µM,3.9 µM,> 10 µM,> 10 µM,> 10 µM,> 10 µM,> 10 µM
COc1cccc(-n2cc(-c3nc(Nc4cc(C)[nH]n4)c4ccccc4n3)nn2)c1,2.59 µM,14.7 µM,5.22 µM,14.9 µM,0.187 µM,5.39 µM,2.6 µM,16.5 µM,2 µM,9.61 µM,0.261 µM,7.04 µM,6.8 µM,15.9 µM,0.165 µM,5.62 µM,5.39 µM,13.8 µM,2.01 µM,9.8 µM
Cn1c2ccccc2c(=O)c2c(O)cc3c(c21)CC(C1(C)CO1)O3 (centres undefined),,7.84 µM,,3.38 µM,,4.09 µM,,5.31 µM,,24.9 µM,,5.73 µM,,19.7 µM,,17.9 µM,,4.11 µM,,1.45 µM
